Laboratory results published in PubChem BioAssay (NCI).
Values joined by “and” are separate entries in the source; they are usually repeats but may differ in a detail not shown here. Equal entries are not always repeated.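 All cell lines were grown in 96-well plates and treated with compound for 48 hours. Abbreviation: GI50, concentration required for 50% inhibition of growth. TGI denotes the concentration required for complete inhibition of growth.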

Legend:
Test in all cases: NCI-60 cell line screen, 48 h
[1] = tested on: PC-3 prostate
[2] = tested on: LOX IMVI melanoma
[3] = tested on: CCRF-CEM leukemia
[4] = tested on: DU-145 prostate
[5] = tested on: SF-295 CNS
[6] = tested on: HL-60(TB) leukemia
[7] = tested on: HOP-62 NSCLC
[8] = tested on: OVCAR-8 ovarian
[9] = tested on: HS 578T breast
[10] = tested on: CAKI-1 renal

SMILES	TGI [1]	TGI [2]	TGI [3] [µM]	TGI [4]	TGI [5]	TGI [6]	TGI [7]	TGI [8]	TGI [9]	TGI [10]	GI50 [1]	GI50 [2]	GI50 [3]	GI50 [4]	GI50 [5]	GI50 [6]	GI50 [7]	GI50 [8]	GI50 [9]	GI50 [10]
O=C(O)/C(Cc1cn[nH]n1)=N\O	> 100 µM	> 100 µM	> 100	> 100 µM	> 100 µM	> 100 µM	> 100 µM	> 100 µM	> 100 µM	> 100 µM	–	–	–	–	–	–	–	–	–	–
CSc1nc2nc3c(nc2c(=O)n1C)C(=O)c1ccccc1C3=O	1.46 µM	0.315 µM	0.794	0.623 µM	0.315 µM	0.514 µM	0.413 µM	0.834 µM	0.678 µM	1 µM	0.269 µM	0.128 µM	0.259 µM	0.216 µM	0.157 µM	0.209 µM	0.097 µM	0.225 µM	0.226 µM	0.3 µM
CC(=O)N1CCN(CCNC(=O)n2cc(-c3ccncc3)c(-c3cc(O)cc(Cl)c3)n2)CC1	57.6 µM	22.7 µM	66.5	> 100 µM	25.7 µM	29 µM	32.6 µM	> 100 µM	53.4 µM	38.1 µM	13.6 µM	6.85 µM	11.8 µM	24.3 µM	10.5 µM	7.79 µM	16.7 µM	12.2 µM	16.7 µM	13 µM
CC(C)OC(=S)Nc1ccc(Cl)c(/C=N/OC(C)(C)C)c1	38.1 µM	34.3 µM	36.8	17.6 µM	18.6 µM	37.8 µM	41.4 µM	17 µM	38.6 µM	32.8 µM	–	–	–	–	–	–	–	–	–	–
COC(=O)c1c(-c2cccs2)oc(-c2cccs2)c1C(=O)OC	> 100 µM	> 63.1 µM	> 100	> 100 µM	51.8 µM	> 100 µM	> 100 µM	> 100 µM	> 100 µM	69.3 µM	26.3 µM	31.9 µM	27.4 µM	> 100 µM	19.4 µM	79.9 µM	32.8 µM	37.6 µM	35.8 µM	26.7 µM
COc1cccc2cc(N(C)c3nc(C)nc4c3CCC4)ccc12	16.4 µM	13.8 µM	14.7	12 µM	12.5 µM	0.0103 µM	13.1 µM	19.2 µM	30 µM	18.9 µM	< 0.01 µM	< 0.01 µM	< 0.01 µM	< 0.01 µM	< 0.01 µM	< 0.01 µM	< 0.01 µM	< 0.01 µM	< 0.01 µM	< 0.01 µM
COc1cc(C2C3=C(COC3=O)N(CCO)c3cc4c(cc32)OCCO4)cc(OC)c1OC (centres undefined)	> 50 µM	> 50 µM	> 50	0.943 µM	4.66 µM	1.28 µM	> 50 µM	> 50 µM	35.5 µM	> 50 µM	0.185 µM	0.286 µM	0.176 µM	0.345 µM	0.15 µM	0.155 µM	0.465 µM	0.24 µM	0.164 µM	2.11 µM
CN(C)CCCn1c(=O)c2ccccc2c2cnc3[nH]ccc3c21	11.1 µM	3.27 µM	8.44	8.97 µM	6.65 µM	9.08 µM	5.72 µM	6.88 µM	11.2 µM	4.66 µM	1.69 µM	0.631 µM	1.53 µM	2.14 µM	1.18 µM	3.27 µM	1.49 µM	1.43 µM	2.53 µM	1.94 µM
COc1ccc(-c2cncn2-c2cc(OC)c(OC)c(OC)c2)cc1	> 40 µM	> 80.9 µM	18.5	9.92 µM	> 14.8 µM	3.59 µM	> 71.6 µM	> 51.3 µM	> 6.68 µM	1.85 µM	0.552 µM	0.857 µM	0.843 µM	0.151 µM	0.0311 µM	1.72 µM	0.101 µM	1.07 µM	0.123 µM	0.051 µM
COc1ccc(-c2cc3c(C)nc(N)nc3n(C3CCC(OCCO)CC3)c2=O)cn1 (centres undefined)	> 2.73 µM and 0.299 µM	1.12 µM and 0.943 µM	> 23.8	> 10 µM and 8.28 µM	0.326 µM and 0.275 µM	> 10 µM and 6.38 µM	2.11 µM and 1.93 µM	2.36 µM and 1.41 µM	0.272 µM and 0.113 µM	0.38 µM and 0.575 µM	0.0687 µM and 0.0222 µM	0.111 µM and 0.0882 µM	0.134 µM and 0.0803 µM	0.153 µM and 0.106 µM	0.0501 µM and 0.0401 µM	0.0345 µM and 0.0941 µM	0.0997 µM and 0.113 µM	0.141 µM and 0.128 µM	0.0345 µM and 0.015 µM	0.0379 µM and 0.0866 µM
Cc1ccc([N+](=O)[O-])c2c(NCCNC(=O)c3cc(C(=O)NCCNc4ccnc5c(C)ccc([N+](=O)[O-])c45)n(C)n3)ccnc12	> 100 µM	> 64.7 µM	> 46.4	> 100 µM	> 100 µM	> 76.1 µM	> 71.2 µM	> 100 µM	> 100 µM	> 100 µM	–	–	–	–	–	–	–	–	–	–
CC/C(Cc1ccccc1)=C(\c1ccc(OCCN2CCCC2)cc1)c1ccc(OC(=O)NCc2ccccc2)cc1	3.55 µM	3.1 µM	7.56	4.7 µM	3.14 µM	3.98 µM	3.75 µM	3.67 µM	4.32 µM	3.02 µM	1.86 µM	1.71 µM	2.83 µM	2.14 µM	1.7 µM	1.93 µM	2.07 µM	1.87 µM	1.97 µM	1.63 µM
CCCOC(=O)c1c(C)n(C)c2scc[n+]12	> 100 µM	> 100 µM	> 100	> 100 µM	> 100 µM	> 100 µM	> 100 µM	> 100 µM	74 µM	> 100 µM	54.1 µM	89.7 µM	53.5 µM	86.1 µM	41.7 µM	> 100 µM	44.6 µM	49.2 µM	19.8 µM	39.9 µM
C#CC1=CC(=O)C(OC)=CC1=O	> 100 µM	40 µM	30.8	37.4 µM	> 100 µM	13.4 µM	36.6 µM	–	> 100 µM	42.6 µM	–	–	–	–	–	–	–	–	–	–
